Assay results published in patent US20260325538A1, “THERAPY” (priority 2023, published 2026).

Key:
[1] = system: Klebsiella pneumoniae K66-45 (NDM-1); experiment: Checkerboard MIC, fixed ratio of sBLI to antibiotic (Examples 3-6); assay type: cell-based; conditions: caMHB 29.4 μM Zn2+
Description: The antibiotics and serine β-lactamase-inhibitors (sBLIs) were purchased from the following suppliers: Ceftazidime (CAZ): Sigma-Aldrich; Cefepime (FEP): Sigma-Aldrich; Cefpodoxime (CEFP): MedChemExpress; Sulbactam (SUL): Sigma-Aldrich Avibactam (AVI): Biosynth; Vaborbactam (VAB): ABCR; Tazobactam (TAZ): Sigma-Aldrich; Taniborbactam (TAN): Sigma-Aldrich.
In each of Examples 3-23, the compound of Example 26 of WO 2018/033719 was employed as the zinc chelator. The following abbreviations are used in these examples: sBLI means serine-β-lactamase inhibitor; CFU means colony-forming unit, which is a group of microbes that grows from a single cell on a petri plate; DMSO means dimethyl sulfoxide; MHB means Mueller-Hinton broth; caMHB means cation-adjusted Mueller-Hinton broth; MIC means minimum inhibitory concentration—the lower the MIC, the more efficient the combination against the respective bacterial strain.
General Protocol Used in Examples 3-10 Employing a Fixed Ratio of sBLI to Antibiotic within Each Experiment:
(§1) Antimicrobial susceptibility testing (AST) by broth microdilution (MIC determination) was performed according to The European Committee on Antimicrobial Susceptibility Testing (EUCAST) guidelines (see Reading guide for broth microdilution Version 5.0, 2024: https://www.eucast.org).
Sterile clear round bottom polystyrene (non-treated) 96-well microplates (Corning 3788) were used for making serial two-fold dilutions of the antibiotic and the serine sBLI in cation-adjusted Mueller Hinton II broth (caMHB; Thermo Scientific, T3462, containing 29.4 μM Zn^2+), across the columns of the microtiter plate ([…]; columns 1-12). The checkerboard plates were all made by keeping the sBLI at a fixed ratio relative to antibiotic (absolute concentrations of each, in μg/mL) to all wells containing sample in each plate. Additionally, a set of samples were included in each test plate, where the zinc chelator was added, at various fixed concentrations, of 16 μg/mL, 8 μg/mL and/or 4 μg/mL (as specified in each Example). All sample wells contained growth medium (caMHB), and inoculated bacteria at a final inoculum between 3-7×10^5 CFU/mL. […] Synergy for the triple combination (antibiotic, sBLI, and zinc chelator) was defined as when the MIC in rows containing the zinc chelator in combination with antibiotic and sBLI (triple combination), was lower than for rows containing antibiotic and sBLI (double combination; no zinc chelator).
(§2) Two technical replicates were performed for each sample. An X in rows 1-8 in the table indicates bacterial growth, while a blank cell indicates no growth. Concentrations (μg/mL) of CAZ are given in row 0a. Concentrations (μg/mL) of AVI are given in row 0b. The zinc chelator was added in fixed concentrations, at 16 μg/mL in rows 3 and 4, at 8 μg/mL in rows 5 and 6, and 4 μg/mL in rows 7 and 8. As a control, the effect of CAZ and AVI (no zinc chelator) was tested (rows 1 and 2). All wells contained bacterial growth medium (caMHB, 29.4 μM Zn^2+) and were inoculated with the test bacterium. The grey cells indicate the CAZ MIC.
as §2, with “FEP” for “CAZ”
Two technical replicates were performed for each sample. An X in rows 1-8 in the table indicates bacterial growth, while a blank cell indicates no growth. Concentrations (μg/mL) of FEP are given in row 0a. Concentrations (μg/mL) of SUL are given in row 0b. […]

[2] = system: various bacterial strains harbouring resistance enzymes; experiment: MIC determination, checkerboard assays (summary statements); assay type: cell-based; conditions: Examples 3-23
Description: Thus, in most of the experiments, a Fractional Inhibitory Concentration Index (FICI) could not be calculated, and the conclusion of synergy was made through visual reading of the bacterial growth in the wells in the combination experiment.
as §1
Sterile clear round bottom polystyrene (non-treated) 96-well microplates (Corning 3788) were used for making serial two-fold dilutions of the antibiotic and the serine sBLI in cation-adjusted Mueller Hinton II broth (caMHB; Thermo Scientific, T3462, containing 29.4 μM Zn^2+), across the columns of the microtiter plate (256-0.06 μg/mL; columns 1-12). The checkerboard plates were all made by keeping the sBLI at a fixed ratio relative to antibiotic (absolute concentrations of each, in μg/mL) to all wells containing sample in each plate. Additionally, a set of samples were included in each test plate, where the zinc chelator was added, at various fixed concentrations, of 16 μg/mL, 8 μg/mL and/or 4 μg/mL (as specified in each Example). All sample wells contained growth medium (caMHB), and inoculated bacteria at a final inoculum between 3-7×10^5 CFU/mL. […]

CN(C[C@H](O)[C@@H](O)[C@H](O)[C@H](O)CO)C(=O)c1ccc(CN(Cc2ccccn2)Cc2ccccn2)nc1 [zinc chelator]
synergy with the zinc chelator ([1]; zinc chelator 4 μg/mL, with CAZ and AVI (fixed ratio)): variable synergy | synergy with the zinc chelator ([1]; zinc chelator 4 μg/mL, with FEP and AVI (fixed ratio)): variable synergy | synergy with the zinc chelator ([1]; zinc chelator 8 μg/mL, with CAZ and AVI (fixed ratio)): Synergy | synergy with the zinc chelator ([1]; zinc chelator 8 μg/mL, with FEP and AVI (fixed ratio)): Synergy | synergy with the zinc chelator ([1]; zinc chelator 8 μg/mL, with FEP and SUL (fixed ratio)): Synergy | synergy with the zinc chelator ([1]; zinc chelator 8 μg/mL, with FEP and TAZ (fixed ratio)): Synergy | synergy with the zinc chelator ([1]; zinc chelator 16 μg/mL, with CAZ and AVI (fixed ratio)): Synergy | synergy with the zinc chelator ([1]; zinc chelator 16 μg/mL, with FEP and AVI (fixed ratio)): Synergy | synergy with the zinc chelator ([1]; zinc chelator 16 μg/mL, with FEP and SUL (fixed ratio)): Synergy | synergy with the zinc chelator ([1]; zinc chelator 16 μg/mL, with FEP and TAZ (fixed ratio)): Synergy | intrinsic antibiotic effect [2]: neither the zinc chelator nor the sBLI have intrinsic antibiotic effect
